Measured values: patent US20100041089A1, “IMPROVED METHOD FOR DETECTING CHEMICAL […]” (priority 2006, published 2010)

Tested on: yeast genes (expressed mRNA)
Assay: DNA chip measurement of expressed mRNA of yeast genes after culture with a toxic chemical substance
Assay type: cell-based, Saccharomyces cerevisiae S288C
Conditions: for level of expressed mRNA in the presence of chemical substance / level in the absence of chemical substance: cultured two hours with the chemical substance; for The level of expressed mRNA in the presence of chemical substance/The level of expressed mRNA in the absence of chemical substance: cultured two hours with substance
Procedure: Yeast (Saccharomyces cerevisiae S288C (a SUC2mal mel gap2 CUP1)) were cultured at 25° C. on YPD medium (yeast extract 1%, polypeptone 2%, glucose 2%). One of toxic chemical substances was added to the cell at logarithmic growth phase, and the cell was further cultured for two hours. Cell was cultured without any chemical substance in the same condition, and was used as a control. Concentrations of the chemical substances were defined to inhibit the growth of the yeast but not lead to death.
After the completion of cultivation, the culture was centrifuged to collect the cells. To the cells, sodium acetate buffer (50 mM sodium acetate, 10 mM EDTA, 1% SDS) was added, and the mixture was shaken at 65° C. for five minutes, followed by returning to room temperature, and obtaining the supernatant, which procedure was repeated two times. To the supernatant, ½ amount of a solution of phenol/chloroform (1:1) was added, and the mixture was centrifuged to give a supernatant, an equal amount of chloroform was added, and the mixture was centrifuged to give a supernatant. To the supernatant, an equal amount of isopropanol containing 0.3 M sodium acetate was added, and the mixture was allowed to stand at room temperature for 30 minutes, after which the mixture was centrifuged to give sediment of the whole RNAs. Seventy % ethanol was added to the sediment, and the mixture was again centrifuged to give sediment, which was then dried and dissolved in water. mRNA was isolated from the whole RNAs as followings. In view of the fact that a poly A chain is attached to the 3′ terminus of mRNA, a polynucleotide having a poly T structure which was immobilized on the surface of latex beads was used to trap the mRNA, and then the mRNA was washed and eluted with spine column (Oligotex-dT30<Super>mRNA Purification Kit, Takara). Reverse transcription of the mRNA was conducted with a reverse transcriptase (Super Script II Reverse Transcriptase; catalogue No. 18064-014, GibcoBRL) using fluorescence-labeled nucleotides to give cDNAs that were introduced with Cy3-dUTP or Cy5-dUTP during the reverse transcription.
The labeled cDNAs were dissolved in TE buffer (10 mM Tris-HCl/1 mM EDTA, pH 8.0), and the solution was dropped on the DNA chip containing the whole genes of yeast (DNA Chip Research Inc. Japan) so that the cDNAs were hybridized on the DNA chip at 65° C. for over 12 hours. The fluoresces intensity of the DNA chip was read with a scanner, and the ratio relative to the fluorescence intensity resulting from the absence of chemical substance was estimated as the following, which is shown in Tables 1 to 9.
In the Tables, “Intensity” indicated in the rightmost column is a value of the level of expressed mRNA of each gene in control cells as divided by the average level of the expressions of the whole genes. A gene of which mRNA level is lower in control, and is higher in cases of addition of chemical substance, is especially useful in the detection of toxic substances.
Here, when a ratio of an amount of mRNA expressed in the presence of the chemical substance to an amount of mRNA expressed in the absence of the chemical substance is two or more, then it is considered significant.

## Manganese ethylenebis(dithiocarbamate) [(8)]
Gene YBR036C, Metabolism protein genes, DNA chip fluorescence ratio
  The level of expressed mRNA in the presence of chemical substance/The level of expressed mRNA in the absence of chemical substance, yeast gene YBR036C: 0.7
Gene YBR298C, Metabolism protein genes, DNA chip fluorescence ratio
  The level of expressed mRNA in the presence of chemical substance/The level of expressed mRNA in the absence of chemical substance, yeast gene YBR298C: 0.5
Gene YDL067C (mitochondria-located protein gene), yeast cultured two hours with chemical substance, DNA chip fluorescence ratio to control
  The level of expressed mRNA in the presence of chemical substance/The level of expressed mRNA in the absence of chemical substance, yeast gene YDL067C: 1.1
Gene YDL078C, Metabolism protein genes, DNA chip fluorescence ratio
  The level of expressed mRNA in the presence of chemical substance/The level of expressed mRNA in the absence of chemical substance, yeast gene YDL078C: 1.0
Gene YDL215C, Metabolism protein genes, DNA chip fluorescence ratio
  The level of expressed mRNA in the presence of chemical substance/The level of expressed mRNA in the absence of chemical substance, yeast gene YDL215C: 1.1
Gene YDR079W (mitochondria-located protein gene), yeast cultured two hours with chemical substance, DNA chip fluorescence ratio to control
  The level of expressed mRNA in the presence of chemical substance/The level of expressed mRNA in the absence of chemical substance, yeast gene YDR079W: 2.6
Gene YDR297W, Metabolism protein genes, DNA chip fluorescence ratio
  The level of expressed mRNA in the presence of chemical substance/The level of expressed mRNA in the absence of chemical substance, yeast gene YDR297W: 1.5
Gene YDR387C, Metabolism protein genes, DNA chip fluorescence ratio
  The level of expressed mRNA in the presence of chemical substance/The level of expressed mRNA in the absence of chemical substance, yeast gene YDR387C: 0.7
Gene YGL035C, Metabolism protein genes, DNA chip fluorescence ratio
  The level of expressed mRNA in the presence of chemical substance/The level of expressed mRNA in the absence of chemical substance, yeast gene YGL035C: 1.3
Gene YGR062C (mitochondria-located protein gene), yeast cultured two hours with chemical substance, DNA chip fluorescence ratio to control
  The level of expressed mRNA in the presence of chemical substance/The level of expressed mRNA in the absence of chemical substance, yeast gene YGR062C: 0.8
Gene YGR287C, Metabolism protein genes, DNA chip fluorescence ratio
  The level of expressed mRNA in the presence of chemical substance/The level of expressed mRNA in the absence of chemical substance, yeast gene YGR287C: 1.3
Gene YJL070C, Metabolism protein genes, DNA chip fluorescence ratio
  The level of expressed mRNA in the presence of chemical substance/The level of expressed mRNA in the absence of chemical substance, yeast gene YJL070C: 1.1
Gene YJL096W (mitochondria-located protein gene), yeast cultured two hours with chemical substance, DNA chip fluorescence ratio to control
  The level of expressed mRNA in the presence of chemical substance/The level of expressed mRNA in the absence of chemical substance, yeast gene YJL096W: 1.3
Gene YJL180C (mitochondria-located protein gene), yeast cultured two hours with chemical substance, DNA chip fluorescence ratio to control
  The level of expressed mRNA in the presence of chemical substance/The level of expressed mRNA in the absence of chemical substance, yeast gene YJL180C: 1.0
Gene YKR009C, Metabolism protein genes, DNA chip fluorescence ratio
  The level of expressed mRNA in the presence of chemical substance/The level of expressed mRNA in the absence of chemical substance, yeast gene YKR009C: 0.9
Gene YLR295C (mitochondria-located protein gene), yeast cultured two hours with chemical substance, DNA chip fluorescence ratio to control
  The level of expressed mRNA in the presence of chemical substance/The level of expressed mRNA in the absence of chemical substance, yeast gene YLR295C: 1.2
Gene YLR351C, Metabolism protein genes, DNA chip fluorescence ratio
  The level of expressed mRNA in the presence of chemical substance/The level of expressed mRNA in the absence of chemical substance, yeast gene YLR351C: 1.2
Gene YLR375W, Metabolism protein genes, DNA chip fluorescence ratio
  The level of expressed mRNA in the presence of chemical substance/The level of expressed mRNA in the absence of chemical substance, yeast gene YLR375W: 1.0
Gene YMR023C (mitochondria-located protein gene), yeast cultured two hours with chemical substance, DNA chip fluorescence ratio to control
  The level of expressed mRNA in the presence of chemical substance/The level of expressed mRNA in the absence of chemical substance, yeast gene YMR023C: 1.4
Gene YMR267W (mitochondria-located protein gene), yeast cultured two hours with chemical substance, DNA chip fluorescence ratio to control
  The level of expressed mRNA in the presence of chemical substance/The level of expressed mRNA in the absence of chemical substance, yeast gene YMR267W: 1.5
Gene YMR267W, Metabolism protein genes, DNA chip fluorescence ratio
  The level of expressed mRNA in the presence of chemical substance/The level of expressed mRNA in the absence of chemical substance, yeast gene YMR267W: 1.5
Gene YMR278W, Metabolism protein genes, DNA chip fluorescence ratio
  The level of expressed mRNA in the presence of chemical substance/The level of expressed mRNA in the absence of chemical substance, yeast gene YMR278W: 1.1
Gene YMR293C, Metabolism protein genes, DNA chip fluorescence ratio
  The level of expressed mRNA in the presence of chemical substance/The level of expressed mRNA in the absence of chemical substance, yeast gene YMR293C: 1.0
Gene YNL073W (mitochondria-located protein gene), yeast cultured two hours with chemical substance, DNA chip fluorescence ratio to control
  The level of expressed mRNA in the presence of chemical substance/The level of expressed mRNA in the absence of chemical substance, yeast gene YNL073W: 1.0
Gene YNR072W, Metabolism protein genes, DNA chip fluorescence ratio
  The level of expressed mRNA in the presence of chemical substance/The level of expressed mRNA in the absence of chemical substance, yeast gene YNR072W: 0.9
Gene YOL096C, Metabolism protein genes, DNA chip fluorescence ratio
  The level of expressed mRNA in the presence of chemical substance/The level of expressed mRNA in the absence of chemical substance, yeast gene YOL096C: 1.0
Gene YOR180C, Metabolism protein genes, DNA chip fluorescence ratio
  The level of expressed mRNA in the presence of chemical substance/The level of expressed mRNA in the absence of chemical substance, yeast gene YOR180C: 0.9
Gene YOR316C (mitochondria-located protein gene), yeast cultured two hours with chemical substance, DNA chip fluorescence ratio to control
  The level of expressed mRNA in the presence of chemical substance/The level of expressed mRNA in the absence of chemical substance, yeast gene YOR316C: 0.8
Gene YOR363C, Metabolism protein genes, DNA chip fluorescence ratio
  The level of expressed mRNA in the presence of chemical substance/The level of expressed mRNA in the absence of chemical substance, yeast gene YOR363C: 1.1
Gene YPL040C (mitochondria-located protein gene), yeast cultured two hours with chemical substance, DNA chip fluorescence ratio to control
  The level of expressed mRNA in the presence of chemical substance/The level of expressed mRNA in the absence of chemical substance, yeast gene YPL040C: 1.1
Gene YPL134C (mitochondria-located protein gene), yeast cultured two hours with chemical substance, DNA chip fluorescence ratio to control
  The level of expressed mRNA in the presence of chemical substance/The level of expressed mRNA in the absence of chemical substance, yeast gene YPL134C: 1.3
Gene YPR184W, Metabolism protein genes, DNA chip fluorescence ratio
  The level of expressed mRNA in the presence of chemical substance/The level of expressed mRNA in the absence of chemical substance, yeast gene YPR184W: 0.7
Yeast gene YAL018C
  level of expressed mRNA in the presence of chemical substance / level in the absence of chemical substance: 1.6
Yeast gene YAL053W
  The level of expressed mRNA in the presence of chemical substance/The level of expressed mRNA in the absence of chemical substance: 0.8
Yeast gene YAR047C
  level of expressed mRNA in the presence of chemical substance / level in the absence of chemical substance: 0.8
Yeast gene YAR064W
  level of expressed mRNA in the presence of chemical substance / level in the absence of chemical substance: 1.1
Yeast gene YBL044W
  level of expressed mRNA in the presence of chemical substance / level in the absence of chemical substance: 0.7
Yeast gene YBL048W
  The level of expressed mRNA in the presence of chemical substance/The level of expressed mRNA in the absence of chemical substance: 1.2
Yeast gene YBL107C
  The level of expressed mRNA in the presence of chemical substance/The level of expressed mRNA in the absence of chemical substance: 1.9
Yeast gene YBR012C
  level of expressed mRNA in the presence of chemical substance / level in the absence of chemical substance: 1.1
Yeast gene YBR066C
  level of expressed mRNA in the presence of chemical substance / level in the absence of chemical substance: 1.2
Yeast gene YBR124W
  level of expressed mRNA in the presence of chemical substance / level in the absence of chemical substance: 1.2
Yeast gene YBR162C
  level of expressed mRNA in the presence of chemical substance / level in the absence of chemical substance: 0.8
Yeast gene YBR287W
  level of expressed mRNA in the presence of chemical substance / level in the absence of chemical substance: 1.0
Yeast gene YCL042W
  level of expressed mRNA in the presence of chemical substance / level in the absence of chemical substance: 0.6
Yeast gene YCL056C
  level of expressed mRNA in the presence of chemical substance / level in the absence of chemical substance: 1.0
Yeast gene YCR007C
  level of expressed mRNA in the presence of chemical substance / level in the absence of chemical substance: 1.0
Yeast gene YDL046W
  level of expressed mRNA in the presence of chemical substance / level in the absence of chemical substance: 0.7
Yeast gene YDL072C
  The level of expressed mRNA in the presence of chemical substance/The level of expressed mRNA in the absence of chemical substance: 0.8
Yeast gene YDL204W
  The level of expressed mRNA in the presence of chemical substance/The level of expressed mRNA in the absence of chemical substance: 1.1
Yeast gene YDL222C
  The level of expressed mRNA in the presence of chemical substance/The level of expressed mRNA in the absence of chemical substance: 0.7
Yeast gene YDR090C
  level of expressed mRNA in the presence of chemical substance / level in the absence of chemical substance: 0.8
